Reference: US11560400B2, “Salts of diphosphate phosphoramidate of nucleosides as anticancer compounds” (NuCana plc, priority 2017, dated 2023)
Structures can show the parent of a compound that is named as a salt. Where two headings read alike, the source gives them in different places.

What was measured:
[1] = system: KG-1; assay: CellTiterGlo cell viability assay, KG-1; assay type: cell-based; conditions: KG-1, 72 h; for EC50: read-out: Ab EC50; for inhibition at 198 µM: read-out: Top Inhibit
Description: (§1) A subset of compounds of the invention were assayed for their cytotoxic activity in an array of different solid tumours and haematological malignancies using the following assay.
(§2) In vitro viability assay were performed to assess the effects of compounds on cell viability in selected cell lines over 72 h using the CellTiterGlo (CTG, Promega-G7573) assay. The tests were performed in duplicates with treatment of compounds at 9 points, 3.16 folds titration in 96 well plates over ˜72 h. The compound starting concentrations were 198 μM. Cell viability assay using CellTiterGlo in 96-well plate were performed. Compound treatment 72 h, standard growth conditions, duplicates. Compounds were dissolved to 40 mM with thawed […]. Compounds were serially diluted at 3.16 fold in thawed DMSO, and warmed to 37° C. before being dissolved in media (2 μL+200 μL). After compounds were dissolved in media, media containing compounds were warmed to 37° C. in incubator and then compounds in media were added to cell plates (50 μL+50 μL) in duplicates. The compounds' final concentrations were from 198 μM to 19.8 nM. All compound solubilities were checked and recorded again, then the plates were transferred to CO2 tissue culture incubator immediately and incubated for 3 days. DMSO final concentration is 0.5%. The parent nucleoside in each case was tested as a comparator, as was an exemplary ProTide. The drugs of the ProTide class that were tested were as follows:
(§3) The following cell lines were tested and are referred to in the Table 1 below:
(§4) In Tables 2, 3 and 4, ‘Ab EC50’ refers to the absolute EC50 and ‘Top inhibit’ refers to the percentage inhibition achieved at the highest concentration tested.

[2] = system: RPMI-8226; assay: CellTiterGlo cell viability assay, RPMI-8226; assay type: cell-based, Human; conditions: RPMI-8226, 72 h; for EC50: read-out: Ab EC50; for inhibition at 198 µM: read-out: Top Inh
Description: as §1, §2, §3, §4

[3] = system: HT29; assay: CellTiterGlo cell viability assay, HT29; assay type: cell-based; conditions: HT29, 72 h; for EC50: read-out: Ab EC50; for inhibition at 198 µM: read-out: Top Inhibit
Description: as §1, §2, §3, §4

[4] = system: MCF-7; assay: CellTiterGlo cell viability assay, MCF-7; assay type: cell-based; conditions: MCF-7, 72 h; for inhibition at 198 µM / EC50: Homo sapiens, MCF7, 72 h; for inhibition at 198 µM: read-out: Top Inhibit; for EC50: Table 4 classes, read-out: Ab EC50
Description: as §1, §2, §3, §4

[5] = system: HepG2; assay: CellTiterGlo cell viability assay, HepG2; assay type: cell-based; conditions: HepG2, 72 h; for EC50: read-out: Ab EC50; for inhibition at 198 µM: read-out: Top Inhibit
Description: as §1, §2, §3, §4

[6] = system: K562; assay: CellTiterGlo cell viability assay, K562; assay type: cell-based; conditions: for inhibition at 198 µM: read-out: Top Inh; for EC50: read-out: Ab EC50
Description: as §1, §2, §3, §4

[7] = system: HL-60; assay: CellTiterGlo cell viability assay, HL-60; assay type: cell-based; conditions: HL-60, 72 h; for EC50: read-out: Ab EC50; for inhibition at 198 µM: read-out: Top Inh
Description: as §1, §2, §3, §4

[8] = system: CCRF-CEM; assay: CellTiterGlo cell viability assay, CCRF-CEM; assay type: cell-based; conditions: 72 h; for EC50: read-out: Ab EC50; for inhibition at 198 µM: read-out: Top Inh
Description: as §1, §2, §3, §4

[9] = system: RL; assay: CellTiterGlo cell viability assay, RL; assay type: cell-based; conditions: 72 h; for inhibition at 198 µM: read-out: Top Inh
Description: as §1, §2, §3, §4

[10] = system: MOLT-4; assay: CellTiterGlo cell viability assay, MOLT-4; assay type: cell-based; conditions: MOLT-4, 72 h; for inhibition at 198 µM: read-out: Top Inh; for EC50: read-out: Ab EC50
Description: as §1, §2, §3, §4

[11] = system: OVCAR 3; assay: CellTiterGlo cell viability assay, OVCAR 3; assay type: cell-based; conditions: for inhibition at 198 µM: OVCAR-3, 72 h, read-out: Top Inhibit; for EC50: read-out: Ab EC50
Description: as §1, §2, §3, §4

[12] = Homo sapiens, percentage inhibition at the highest concentration tested
[13] = Homo sapiens, HT-29, 72 h, Table 4 classes
[14] = Homo sapiens, HT-29, 72 h, percentage inhibition at the highest concentration tested
[15] = percentage inhibition at the highest concentration tested
[16] = Homo sapiens, K562, 72 h, percentage inhibition at the highest concentration tested
[17] = Homo sapiens, K562, K 562, 72 h, Table 4 classes
[18] = Homo sapiens, OVCAR 3, 72 h, Table 4 classes

SMILES | EC50 ([1]; Homo sapiens, Table 4 classes) [nM] | inhibition at 198 µM [1, 12] [%] | EC50 ([2]; Homo sapiens, Table 4 classes) [µM] | inhibition at 198 µM [2, 12] [%] | EC50 [3, 13] [nM] | inhibition at 198 µM [3, 14] [%] | inhibition at 198 µM [4, 15] [%] | EC50 ([5]; Homo sapiens, Table 4 classes) [nM] | inhibition at 198 µM [5, 12] [%] | inhibition at 198 µM [6, 16] [%] | EC50 [6, 17] [µM] | EC50 ([7]; Homo sapiens, Table 4 classes) [nM] | inhibition at 198 µM [7, 12] [%] | EC50 ([8]; Homo sapiens, Table 4 classes) [nM] | inhibition at 198 µM [8, 12] [%] | inhibition at 198 µM [9, 12] [%] | inhibition at 198 µM [10, 12] [%] | EC50 ([10]; Homo sapiens, Table 4 classes) [nM] | inhibition at 198 µM [11, 12] [%] | EC50 [11, 18] [µM] | further results
C[C@H](NP(=O)(Oc1ccccc1)OP(=O)(O)OC[C@H]1O[C@@H](n2cnc3c(N)nc(Cl)nc32)[C@H](F)C1O)C(=O)OCC(C)(C)C (stereo partly drawn) [Example 9, 2-Chloro-9-(2′-Deoxy-2′-fluoro-β-D-arabinofuranosyl)adenine-5′-O-[phenyl(neopentoxy-L-alaninyl)] Diphosphate Triethylammonium Salt] | < 200 | 92 | > 10 | 81 | 200 to 1000 | 70 | 45 | 200 to 1000 | 53 | 40 | > 10 | < 200 | 96 | < 200 | 99 | 53 | 92 | < 200 | 43 | > 10 | EC50 ([9]; Homo sapiens, Table 4 classes, read-out: Ab EC50): 200 to 1000 nM
CC(C)(NP(=O)(Oc1ccccc1)OP(=O)(O)OC[C@H]1O[C@@H](n2cnc3c(N)nc(Cl)nc32)[C@H](F)C1O)C(=O)OCc1ccccc1 (stereo partly drawn) [Example 10, 2-Chloro-9-(2′-Deoxy-2′-fluoro-β-D-arabinofuranosyl)adenine-5′-O-[phenyl(benzoxy-dimethylglycinyl)] Diphosphate Triethylammonium Salt] | < 200 | 92 | > 10 | 80 | 200 to 1000 | 70 | 51 | 1000 to 5000 | 55 | 37 | > 10 | < 200 | 96 | < 200 | 99 | 48 | 93 | < 200 | 42 | > 10 | EC50 [4]: > 10 µM
CC(C)(NP(=O)(Oc1cccc2ccccc12)OP(=O)(O)OC[C@H]1O[C@@H](n2cnc3c(N)nc(Cl)nc32)[C@H](F)C1O)C(=O)OCc1ccccc1 (stereo partly drawn) [Example 11, 2-Chloro-9-(2′-Deoxy-2′-fluoro-β-D-arabinofuranosyl)adenine-5′-O-[1-naphthyl(benzoxy-dimethylglycinyl)] Diphosphate Triethylammonium Salt] | < 200 | 92 | > 10 | 81 | 200 to 1000 | 69 | 57 | 1000 to 5000 | 58 | 50 | > 10 | < 200 | 96 | < 200 | 99 | 47 | 91 | < 200 | 70 | > 10 | EC50 [4]: > 10 µM
CC(C)[C@H](NP(=O)(Oc1ccccc1)OP(=O)(O)OC[C@H]1O[C@@H](n2cnc3c(N)nc(Cl)nc32)[C@@H](F)[C@@H]1O)C(=O)OC1CCCCC1.CCN(CC)CC (stereo partly drawn) [Example 12, 2-Chloro-9-(2′-Deoxy-2′-fluoro-β-D-arabinofuranosyl)adenine-5′-O-[phenyl(cyclohexoxy-L-valinyl)] Diphosphate Triethylammonium Salt] |  |  |  |  |  |  |  |  |  |  |  |  |  |  |  |  |  |  |  |  | EC50 ([1]; absolute EC50, numeric values): 140 nM; Top Inhibit [1, 15]: 91%; EC50 ([2]; absolute EC50, numeric values): 39.6 µM; Top Inh [2, 15]: 79%; EC50 ([3]; absolute EC50, numeric values): 370 nM; Top Inhibit [3, 15]: 71%; Top Inhibit [4, 15]: 44%; EC50 ([5]; absolute EC50, numeric values): 290 nM; Top Inhibit [5, 15]: 54%; EC50 ([6]; K562, 72 h, absolute EC50, numeric values): > 198 µM; Top Inh ([6]; K562, 72 h, percentage inhibition at the highest concentration tested): 40%; EC50 ([7]; absolute EC50, numeric values): 70 nM; Top Inh [7, 15]: 96%; EC50 ([8]; absolute EC50, numeric values): < 20 nM; Top Inh [8, 15]: 99%; Top Inh [9, 15]: 47%; EC50 ([10]; absolute EC50, numeric values): 40 nM; Top Inh [10, 15]: 91%; EC50 ([11]; OVCAR 3, 72 h, absolute EC50, numeric values): > 198 µM; Top Inhibit ([11]; OVCAR 3, 72 h, percentage inhibition at the highest concentration tested): 41%
C[C@H](NP(=O)(Oc1cccc2ccccc12)OP(=O)(O)OC[C@H]1O[C@@H](n2cnc3c(N)nc(Cl)nc32)[C@H](F)C1O)C(=O)OCC(C)(C)C (stereo partly drawn) [Example 13, 2-Chloro-9-(2′-Deoxy-2′-fluoro-β-D-arabinofuranosyl)adenine-5′-O-[1-naphthyl(neopentoxy-L-alaninyl)] Diphosphate Triethylammonium Salt] | < 200 | 93 | > 10 | 88 | 200 to 1000 | 68 | 49 |  | 49 | 44 | > 10 | < 200 | 96 | < 200 | 99 | 48 | 89 | < 200 | 80 | > 10 | 
C[C@@H](NP(=O)(Oc1ccccc1)OP(=O)(O)OC[C@H]1O[C@@H](n2cnc3c(N)nc(Cl)nc32)[C@H](F)C1O)C(=O)OCC(C)(C)C (stereo partly drawn) [Example 14, 2-Chloro-9-(2′-Deoxy-2′-fluoro-β-D-arabinofuranosyl)adenine-5′-O-[phenyl(neopentoxy-D-alaninyl)] Diphosphate Triethylammonium Salt] | < 200 | 93 | > 10 | 78 | 200 to 1000 | 71 | 48 | 200 to 1000 | 52 | 36 | > 10 | < 200 | 96 | < 200 | 99 | 49 | 95 | < 200 | 43 | > 10 | 
